Literature values, collected in US20080293820A1, “METHODS FOR IMPROVING PHYSICAL FUNCTION IN FIBROMYALGIA” (Cypress Bioscience, Inc., priority 2007, published 2008).

System: patients with FMS
Settings: open-label; cited from earlier work

## COc1ccc(C(CN(C)C)C2(O)CCCCC2)cc1 (centres unmarked) [venlafaxine]
  completing patients with a positive response (50% or greater improvement in two different measurements of overall pain): Six of 11
  insomnia requiring adjunctive medical therapy, completing patients: 3 of 11
